Reference: patent US20250115600A1, “COVALENT MODIFIERS OF AKT1 AND USES THEREOF” (Terremoto Biosciences, Inc., priority 2022, published 2025)

Assays:
Test in all cases: Live cell target engagement (NanoBRET) in HEK293 cells
Format in all cases: cell-based
AKT1 E17K = AKT1 E17K (Homo sapiens (Human), UniProt P31749, E17K); settings: for IC50: HEK293, 2 hours at 37° C.
AKT1 WT = AKT1 WT (Homo sapiens (Human), UniProt P31749); settings: HEK293, 2 hours at 37° C.
AKT2 = AKT2 (Homo sapiens (Human), UniProt P31751); settings: HEK293, 2 hours at 37° C.
Chain of AKT2 (P31751 whole entry): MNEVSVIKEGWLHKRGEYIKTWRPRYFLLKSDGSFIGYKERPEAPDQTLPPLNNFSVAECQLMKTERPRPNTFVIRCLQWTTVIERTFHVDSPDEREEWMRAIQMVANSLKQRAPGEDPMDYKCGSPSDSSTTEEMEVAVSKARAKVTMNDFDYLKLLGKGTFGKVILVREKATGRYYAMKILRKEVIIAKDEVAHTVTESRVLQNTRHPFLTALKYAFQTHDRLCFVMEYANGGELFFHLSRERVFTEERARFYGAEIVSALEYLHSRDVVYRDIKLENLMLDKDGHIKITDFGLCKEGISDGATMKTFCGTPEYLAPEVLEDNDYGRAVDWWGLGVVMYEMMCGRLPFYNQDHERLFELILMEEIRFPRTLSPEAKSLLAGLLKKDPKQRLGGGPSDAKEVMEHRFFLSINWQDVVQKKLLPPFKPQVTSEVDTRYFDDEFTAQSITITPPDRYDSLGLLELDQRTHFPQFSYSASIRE

Chain of AKT1 WT (P31749 whole entry): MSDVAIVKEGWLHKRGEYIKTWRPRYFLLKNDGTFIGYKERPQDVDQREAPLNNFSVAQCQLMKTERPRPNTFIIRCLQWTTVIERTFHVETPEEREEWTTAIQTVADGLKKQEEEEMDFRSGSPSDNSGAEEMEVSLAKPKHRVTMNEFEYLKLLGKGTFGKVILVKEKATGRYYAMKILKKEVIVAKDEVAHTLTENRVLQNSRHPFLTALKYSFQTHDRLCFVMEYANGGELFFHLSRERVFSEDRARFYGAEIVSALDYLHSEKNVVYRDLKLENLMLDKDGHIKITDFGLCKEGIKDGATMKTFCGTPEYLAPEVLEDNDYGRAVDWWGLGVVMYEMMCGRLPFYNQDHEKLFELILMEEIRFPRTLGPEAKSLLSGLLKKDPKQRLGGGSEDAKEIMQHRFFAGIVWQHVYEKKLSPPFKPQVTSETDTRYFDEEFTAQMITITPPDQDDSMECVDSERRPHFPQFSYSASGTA
Chain of AKT1 E17K (P31749 whole entry E17K): as the sequence (P31749 whole entry) above, with E17K counted along it

| SMILES | AKT1 E17K IC50: Selectivity vs AKT1 WT (AKT1 E17K) | AKT1 E17K IC50: Selectivity vs AKT2 (AKT1 E17K) | IC50 (AKT1 E17K) [µM] | IC50 (AKT1 WT) [µM] | IC50 (AKT2) [µM] |
| --- | --- | --- | --- | --- | --- |
| Nc1ncccc1-c1nc2ccc(-c3ccccc3)nc2n1-c1ccc(C(=O)NCc2ccc(O)c(C=O)c2)cc1 [Compound 29, 4-(2-(2-aminopyridin-3-yl)-5-phenyl-3H-imidazo[4,5-b]pyridin-3-yl)-N-(3-formyl-4-hydroxybenzyl)benzamide] | 3 | 23 | < 0.1 | < 0.1 | 0.1 to 0.5 |
| Nc1ncccc1-c1nc2ccc(-c3cccnc3)nc2n1-c1ccc(CNC(=O)c2ccc(O)c(C=O)c2)cc1 [Compound 71, N-(4-(2-(2-aminopyridin-3-yl)-5-(pyridin-3-yl)-3H-imidazo[4,5-b]pyridin-3-yl)benzyl)-3-formyl-4-hydroxybenzamide] | 5.8 | 37 | < 0.1 | < 0.1 | 0.1 to 0.5 |
| Nc1ncccc1-c1nc2ccc(-c3cccnc3)nc2n1-c1ccc(CNC(=O)C2(c3ccc(C=O)c(O)c3F)CC2)cc1 [Compound 67, N-(4-(2-(2-aminopyridin-3-yl)-5-(pyridin-3-yl)-3H-imidazo[4,5-b]pyridin-3-yl)benzyl)-1-(2-fluoro-4-formyl-3-hydroxyphenyl)cyclopropane-1-carboxamide] | 27 | >240 | < 0.1 | > 0.5 | > 0.5 |
| Nc1ncccc1-c1nc2ccc(-c3cccc(N4CCOCC4)c3)nc2n1-c1ccc(CNC(=O)c2cc(F)c(O)c(C=O)c2)cc1 [Example 12, N-(4-(2-(2-aminopyridin-3-yl)-5-(3-morpholinophenyl)-3H-imidazo[4,5-b]pyridin-3-yl)benzyl)-3-fluoro-5-formyl-4-hydroxybenzamide] | 1.5 | 5.2 | < 0.1 | < 0.1 | 0.1 to 0.5 |
| Nc1ncccc1-c1nc2ccc(-c3ccccc3)nc2n1-c1ccc(NC(=O)Cc2ccc(O)c(C=O)c2)cc1 [Compound 28, N-{4-[2-(2-aminopyridin-3-yl)-5-phenylimidazo[4,5-b]pyridin-3-yl]phenyl}-2-(3-formyl-4-hydroxyphenyl)acetamide] | 1.3 | 17 | < 0.1 | < 0.1 | 0.1 to 0.5 |
| Nc1ncccc1-c1nc2ccc(-c3ccncc3)nc2n1-c1ccc(CNC(=O)Cc2ccc(C=O)c(O)c2)cc1 [Compound 61, N-({4-[2-(2-aminopyridin-3-yl)-5-(pyridin-4-yl)imidazo[4,5-b]pyridin-3-yl]phenyl}methyl)-2-(4-formyl-3-hydroxyphenyl)acetamide] | 3 | 66 | < 0.1 | < 0.1 | > 0.5 |
| Nc1ncccc1-c1nc2ccc(-c3ccccc3)nc2n1-c1ccc(C2(NCCc3ccc(C=O)c(O)c3)CCC2)cc1 [Compound 134, 4-(2-((1-(4-(2-(2-aminopyridin-3-yl)-5-phenyl-3H-imidazo[4,5-b]pyridin-3-yl)phenyl)cyclobutyl)amino)ethyl)-2-hydroxybenzaldehyde] | 2.3 | 4.3 | > 0.5 | > 0.5 | > 0.5 |
| Cc1ccc2nc(-c3cccnc3N)n(-c3ccc(CNC(=O)Cc4ccc(C=O)c(O)c4)cc3)c2n1 [Compound 24, N-({4-[2-(2-aminopyridin-3-yl)-5-methylimidazo[4,5-b]pyridin-3-yl]phenyl}methyl)-2-(4-formyl-3-hydroxyphenyl)acetamide] | 4.3 | 210 | < 0.1 | < 0.1 | > 0.5 |
| CC(=O)Nc1cc(CCNCc2ccc(-n3c(-c4cccnc4N)nc4cccnc43)cc2)ccc1C=O [Compound 98, N-(5-{2-[({4-[2-(2-aminopyridin-3-yl)imidazo[4,5-b]pyridin-3-yl]phenyl}methyl)amino]ethyl}-2-formylphenyl)acetamide] | 2.5 | 38 | < 0.1 | < 0.1 | > 0.5 |
| Nc1ncccc1-c1nc2ccc(-c3ccccc3)nc2n1-c1ccc(CNC(=O)C2(c3ccc(C=O)c(O)c3)CC2)cc1 [Compound 69, N-({4-[2-(2-aminopyridin-3-yl)-5-phenylimidazo[4,5-b]pyridin-3-yl]phenyl}methyl)-1-(4-formyl-3-hydroxyphenyl)cyclopropane-1-carboxamide] | 16 | >160 | < 0.1 | > 0.5 | > 0.5 |
| Nc1ncccc1-c1nc2ccc(-c3ccccc3)nc2n1-c1ccc(CCNCc2ccc(C=O)c(O)c2F)cc1 [Compound 40, 4-(((4-(2-(2-aminopyridin-3-yl)-5-phenyl-3H-imidazo[4,5-b]pyridin-3-yl)phenethyl)amino)methyl)-3-fluoro-2-hydroxybenzaldehyde] | 2.2 | 6.7 | < 0.1 | < 0.1 | 0.1 to 0.5 |
| Nc1ncccc1-c1nc2ccc(-c3ccccc3)nc2n1-c1ccc(CNCCCc2ccc(O)c(C=O)c2)cc1 [Compound 129, 5-(3-((4-(2-(2-aminopyridin-3-yl)-5-phenyl-3H-imidazo[4,5-b]pyridin-3-yl)benzyl)amino)propyl)-2-hydroxybenzaldehyde] | 0.51 | 2.5 | < 0.1 | < 0.1 | < 0.1 |

Continued, values first:

| AKT1 E17K IC50: Selectivity vs AKT1 WT (AKT1 E17K) | AKT1 E17K IC50: Selectivity vs AKT2 (AKT1 E17K) | IC50 (AKT1 E17K) [µM] | IC50 (AKT1 WT) [µM] | IC50 (AKT2) [µM] | SMILES |
| --- | --- | --- | --- | --- | --- |
| 0.15 | 0.93 | 0.1 to 0.5 | < 0.1 | 0.1 to 0.5 | Nc1ncccc1-c1nc2ccc(-c3ccccc3)nc2n1-c1ccc(CNCCc2cc(O)c(C=O)cc2F)cc1 [Compound 128, 4-(2-((4-(2-(2-aminopyridin-3-yl)-5-phenyl-3H-imidazo[4,5-b]pyridin-3-yl)benzyl)amino)ethyl)-5-fluoro-2-hydroxybenzaldehyde] |
| 25 | 74 | < 0.1 | > 0.5 | > 0.5 | Nc1ncccc1-c1nc2cccnc2n1-c1ccc(CCC(=O)Nc2ccc(C=O)c(O)c2)cc1 [Compound 86, 3-(4-(2-(2-aminopyridin-3-yl)-3H-imidazo[4,5-b]pyridin-3-yl)phenyl)-N-(4-formyl-3-hydroxyphenyl)propanamide] |
| 1.8 | 5.9 | < 0.1 | < 0.1 | 0.1 to 0.5 | CS(=O)(=O)Nc1cccc(-c2ccc3nc(-c4cccnc4N)n(-c4ccc(CNCCc5ccc(C=O)c(O)c5)cc4)c3n2)c1 [Compound 101, N-{3-[2-(2-aminopyridin-3-yl)-3-[4-({[2-(4-formyl-3-hydroxyphenyl)ethyl]amino}methyl)phenyl]imidazo[4,5-b]pyridin-5-yl]phenyl}methanesulfonamide] |
| 4.8 | 270 | < 0.1 | < 0.1 | > 0.5 | CC(C)c1ccc2nc(-c3cccnc3N)n(-c3ccc(CNC(=O)Cc4ccc(C=O)c(O)c4)cc3)c2n1 [Example 23, N-({4-[2-(2-aminopyridin-3-yl)-5-isopropylimidazo[4,5-b]pyridin-3-yl]phenyl}methyl)-2-(4-formyl-3-hydroxyphenyl)acetamide] |
|  |  | > 0.5 | > 0.5 | > 0.5 | Nc1ncccc1-c1nc2cccnc2n1-c1ccc(CNC(=O)c2cnc(O)c(C=O)c2)cc1 [Compound 46, N-(4-(2-(2-aminopyridin-3-yl)-3H-imidazo[4,5-b]pyridin-3-yl)benzyl)-5-formyl-6-hydroxynicotinamide] |
| 2.4 | 41 | < 0.1 | 0.1 to 0.5 | > 0.5 | Nc1ncccc1-c1nc2ccc(C3CC3)nc2n1-c1ccc(CNCCc2ccc(C=O)c(O)c2)cc1 [Example 16, 4-{2-[({4-[2-(2-aminopyridin-3-yl)-5-cyclopropylimidazo[4,5-b]pyridin-3-yl]phenyl}methyl)amino]ethyl}-2-hydroxybenzaldehyde] |
| 1.8 | 2.5 | > 0.5 | > 0.5 | > 0.5 | Nc1ncccc1-c1nc2cccnc2n1-c1ccc(CNCCc2ccc(C=O)c(O)c2F)cc1 [Compound 95, 4-(2-((4-(2-(2-aminopyridin-3-yl)-3H-imidazo[4,5-b]pyridin-3-yl)benzyl)amino)ethyl)-3-fluoro-2-hydroxybenzaldehyde] |
| 5.8 | 110 | < 0.1 | 0.1 to 0.5 | > 0.5 | Nc1ncccc1-c1nc2ccc(C(F)F)nc2n1-c1ccc(CNC(=O)Cc2ccc(C=O)c(O)c2)cc1 [Example 7, N-({4-[2-(2-aminopyridin-3-yl)-5-(difluoromethyl)imidazo[4,5-b]pyridin-3-yl]phenyl}methyl)-2-(4-formyl-3-hydroxyphenyl)acetamide] |
| 29 | >400 | < 0.1 | > 0.5 | > 0.5 | Nc1ncccc1-c1nc2cccnc2n1-c1ccc(CNC(=O)C2(c3ccc(C=O)c(O)c3)CC2)cc1 [Compound 82, N-(4-(2-(2-aminopyridin-3-yl)-3H-imidazo[4,5-b]pyridin-3-yl)benzyl)-1-(4-formyl-3-hydroxyphenyl)cyclopropane-1-carboxamide] |
